According to patent US10543258B2, “Antibacterial composition containing ADK protein as active ingredient, or composition for preventing or treating sepsis” (priority 2014, dated 2020):

Assays:
[1] = system: E. coli K1; assay: Sepsis animal model, survival rate; format: in vivo, BALB/c mice; conditions: gentamicin 100 μg/kg intraperitoneally; FIG. 12
[2] = system: E. coli K1; assay: Sepsis animal model, serum analysis; format: in vivo, BALB/c mice; conditions: 12 hours after sepsis induction; LAL assay kit; FIG. 15
Protocol: Twelve hours after sepsis induction, levels of inflammatory cytokines (TNF-α, IL-6, and IL-1β), AST, ALT, BUN, and endotoxins in sera isolated from mice were analyzed. Here, a cytokine concentration was measured using an ELISA kit (eBiosciences, San Diego, Calif.), and endotoxins were analyzed using an endotoxin detection kit (LAL assay kit, Thermo Fisher Scientific, Bremen, Germany).

[3] = system: S. aureus; assay: Growth of bacteria in LB broth, CFU over time; format: cell-based, Staphylococcus aureus; conditions: 37° C., Adk 20, 50, 100 μg/ml, ampicillin 100 μg/ml, FIG. 4
Protocol: (§1) To verify the antibacterial activity of the recombinant ADK protein obtained in Example 1, the effect of the ADK protein on the growth of gram-negative bacteria such as E. coli and P. aeruginosa and a gram-positive bacterium such as S. aureus was analyzed.
(§2) More specifically, 1×10^5 CFU of strains were put into a 10 ml LB broth, and an antibiotic (ampicillin) and the ADK protein were added respectively according to five conditions as follows (Group 1: LB broth media with 100 μg/ml ampicillin, Group 2: LB broth media with 20 μg/ml Adk, Group 3: LB broth media with 50 μg/ml Adk, Group 4: LB broth media with 100 μg/ml Adk, Group 5: Non-antibacterial agent LB broth media). The strains were cultured in a 37° C. shaking incubator, 100 μl aliquots of each group was taken at 3-hour intervals and diluted with an LB broth in predetermined ratios, followed by plating the resulting cells on an LB agar (Biobasic, Amherst, N.Y.) plate. The cells were cultured again in a 37° C. incubator overnight, and then CFU values over time were calculated by counting the number of colonies on the LB agar plate.

[4] = system: P. aeruginosa; assay: Growth of bacteria in LB broth, CFU over time; format: cell-based, Pseudomonas aeruginosa; conditions: 37° C., Adk 20, 50, 100 μg/ml, ampicillin 100 μg/ml, FIG. 3
[5] = system: E. coli; assay: Growth of bacteria in LB broth, CFU over time; format: cell-based, Escherichia coli; conditions: 37° C., Adk 20, 50, 100 μg/ml, ampicillin 100 μg/ml, FIG. 2
Protocol: as §1, §2

Row | Compound | time after sepsis induction at which all mice were dead [1] [h] | amount of endotoxins in mouse sera [2] | growth of S. aureus (CFU over time) [3] | growth of P. aeruginosa (CFU over time) [4] | growth of E. coli (CFU over time) [5]
1 | gentamicin | 30 | a significant difference from the negative control (CON) was not observed |  |  | 
2 | CC1(C)S[C@@H]2[C@H](NC(=O)[C@H](N)c3ccccc3)C(=O)N2[C@H]1C(=O)O [ampicillin] |  |  | inhibited | inhibited | inhibited
